Molecules are shown by their SMILES.

The assay relates to T98G, GBM10, and GBM43 cells. The assay can be described thus: Cell proliferation by automated cell counting. In kind it is cell-based, human. The following applies: 5, 50, 500 μM PPF, up to 144 hours. Here is the method: FIG. 25A—T98G, GBM43, and GBM10 cells were incubated with increasing concentrations of PPF (0, 5, 50, and 500 After 0, 48, 96 and 144 hours of treatment, cell were trypsinized and counted using an automated cell counter. FIG. 25B—GBM43, GBM10, and T98G glioma cells were treated with increasing doses of PPF (0.5, 1, 5, 10, and 20 μM) in triplicate. The CellTiterGlo® (Promega) reagent was used to measure survival. Raw values were normalized on a plate-by-plate basis such that 100% cell viability was equivalent to the mean of vehicle wells and 0% cell viability was equivalent to the mean of the MG132 positive control. The normalized data was used to assess viability of glioma cells after PPF treatment.
Referring now to FIGS. 25A and 25B: To determine if PPF influences glioma cell proliferation, the inventors treated T98G, GBM10, and GBM43 cells with increasing concentrations of PPF and evaluated cell proliferation over the course of 144 hours. Briefly, 1.25×10^5 cells were seeded (n=3) in 12-well plates in 1 mL of DMEM supplemented with 10% FBS and allowed to attach at 37° C. for 16 hrs. […] After 0, 48, 96 and 144 hours of treatment, the cells were trypsinized and counted using the automated cell counter. […] Subsequently, 100 μL of CellTiterGlo® reagent was added to each well and luminescence was measured using Envision Reader. […]

Take `CCCn1cnc2c1c(=O)n(CCCCC(C)=O)c(=O)n2C` [PPF, 3-methyl-1-(5-oxohexyl)-7-propyl-3,7-dihydro-1H-purine-2,6-dione]: the glioma cell proliferation entry is listed as “did not affect the proliferation”.

The record behind these values is patent publication US10624895B2, “Methods of sensitizing a patient with glioma to a therapeutic agent by administering small hairpin RNA targeting PDZ-RHOGEF” (THE TRANSLATIONAL GENOMICS RESEARCH INSTITUTE, priority 2016, dated 2020).
